From patent US7659404B2, “Broad spectrum 2-(substituted-amino)-benzothiazole sulfonamide HIV protease inhibitors” (Tibotec Pharmaceuticals Ltd., priority 2001, dated 2010)

Key:
[1] = tested on: clinically isolated HIV strain B; assay: Antiviral spectrum, cellular assay (fold resistance), strain B; type: cell-based; conditions: FR=EC50(mutant strain)/EC50(HIV-1 strain LAI)
Experimental: (§1) HIV- or mock-infected MT4 cells were incubated for five days in the presence of various concentrations of the inhibitor. At the end of the incubation period, all HIV-infected cells have been killed by the replicating virus in the control cultures in the absence of any inhibitor. Cell viability is measured by measuring the concentration of MTT, a yellow, water soluble tetrazolium dye that is converted to a purple, water insoluble formazan in the mitochondria of living cells only. Upon solubilization of the resulting formazan crystals with isopropanol, the absorbance of the solution is monitored at 540 nm. The values correlate directly to the number of living cells remaining in the culture at the completion of the five day incubation. The inhibitory activity of the compound was monitored on the virus-infected cells and was expressed as EC50 and EC90. These values represent the amount of the compound required to protect 50% and 90%, respectively, of the cells from the cytopathogenic effect of the virus. The toxicity of the compound was measured on the mock-infected cells and was expressed as CC50, which represents the concentration of compound required to inhibit the growth of the cells by 50%. The selectivity index (SI) (ratio CC50/EC50) is an indication of the selectivity of the anti-HIV activity of the inhibitor.
(§2) Because of the increasing emergence of drug resistant HIV strains, the present compounds were tested for their potency against clinically isolated HIV strains harboring several mutations. These mutations are associated with resistance to protease inhibitors and result in viruses that show various degrees of phenotypic cross-resistance to the currently commercially available drugs such as for instance saquinavir, ritonavir, nelfinavir, indinavir and amprenavir.
(§3) As a measure of the broad spectrum activity of the present compounds, the fold resistance (FR) defined as FR=EC50(mutant strain)/EC50(HIV-1 strain LAI).

[2] = tested on: virus strain F (R13025); assay: microbe, parasite or virus in culture; type: cell-based, HIV; conditions: FR=EC50(mutant strain)/EC50(HIV-1 strain LAI); strain F
In short: (§4)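 MT4 cells, HIV or mock infection, 5 d with compound dilutions; MTT readout, formazan in isopropanol, A540. EC50/EC90 = conc. protecting 50/90% of cells from CPE; CC50 from mock-infected cells. FR = EC50 mutant/EC50 LAI.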

[3] = tested on: virus strain S (R13080); assay: microbe, parasite or virus in culture; type: cell-based, HIV; conditions: FR=EC50(mutant strain)/EC50(HIV-1 strain LAI); strain S
In short: as §4

[4] = tested on: clinically isolated HIV strain L; assay: Antiviral spectrum, cellular assay (fold resistance), strain L; type: cell-based; conditions: FR=EC50(mutant strain)/EC50(HIV-1 strain LAI)
Experimental: as §1, §2, §3

[5] = tested on: clinically isolated HIV strain K; assay: Antiviral spectrum, cellular assay (fold resistance), strain K; type: cell-based; conditions: FR=EC50(mutant strain)/EC50(HIV-1 strain LAI)
Experimental: as §1, §2, §3

[6] = tested on: clinically isolated HIV strain C; assay: Antiviral spectrum, cellular assay (fold resistance), strain C; type: cell-based; conditions: FR=EC50(mutant strain)/EC50(HIV-1 strain LAI)
Experimental: as §1, §2, §3

[7] = tested on: clinically isolated HIV strain Q; assay: Antiviral spectrum, cellular assay (fold resistance), strain Q; type: cell-based; conditions: FR=EC50(mutant strain)/EC50(HIV-1 strain LAI)
Experimental: as §1, §2, §3

[8] = tested on: clinically isolated HIV strain N; assay: Antiviral spectrum, cellular assay (fold resistance), strain N; type: cell-based; conditions: FR=EC50(mutant strain)/EC50(HIV-1 strain LAI)
Experimental: as §1, §2, §3

[9] = tested on: clinically isolated HIV strain P; assay: Antiviral spectrum, cellular assay (fold resistance), strain P; type: cell-based; conditions: FR=EC50(mutant strain)/EC50(HIV-1 strain LAI)
Experimental: as §1, §2, §3

[10] = tested on: clinically isolated HIV strain A; assay: Antiviral spectrum, cellular assay (fold resistance), strain A; type: cell-based; conditions: FR=EC50(mutant strain)/EC50(HIV-1 strain LAI)
Experimental: as §1, §2, §3

[11] = tested on: clinically isolated HIV strain R; assay: Antiviral spectrum, cellular assay (fold resistance), strain R; type: cell-based; conditions: FR=EC50(mutant strain)/EC50(HIV-1 strain LAI)
Experimental: as §1, §2, §3

[12] = tested on: clinically isolated HIV strain H; type: cell-based; conditions: FR=EC50(mutant strain)/EC50(HIV-1 strain LAI)
In short: as §4

[13] = tested on: clinically isolated HIV strain O; type: cell-based; conditions: FR=EC50(mutant strain)/EC50(HIV-1 strain LAI)
In short: as §4

[14] = tested on: clinically isolated HIV strain I; type: cell-based; conditions: FR=EC50(mutant strain)/EC50(HIV-1 strain LAI)
In short: as §4

[15] = tested on: clinically isolated HIV strain T; type: cell-based; conditions: FR=EC50(mutant strain)/EC50(HIV-1 strain LAI)
In short: as §4

[16] = tested on: clinically isolated HIV strain J; type: cell-based; conditions: FR=EC50(mutant strain)/EC50(HIV-1 strain LAI)
In short: as §4

[17] = tested on: clinically isolated HIV strain E; assay: Antiviral spectrum, cellular assay (fold resistance), strain E; type: cell-based; conditions: FR=EC50(mutant strain)/EC50(HIV-1 strain LAI)
Experimental: as §1, §2, §3

[18] = tested on: clinically isolated HIV strain G; assay: Antiviral spectrum, cellular assay (fold resistance), strain G; type: cell-based; conditions: FR=EC50(mutant strain)/EC50(HIV-1 strain LAI)
Experimental: as §1, §2, §3

[19] = tested on: clinically isolated HIV strain M; assay: Antiviral spectrum, cellular assay (fold resistance), strain M; type: cell-based; conditions: FR=EC50(mutant strain)/EC50(HIV-1 strain LAI)
Experimental: as §1, §2, §3

[20] = tested on: clinically isolated HIV strain D; assay: Antiviral spectrum, cellular assay (fold resistance), strain D; type: cell-based; conditions: FR=EC50(mutant strain)/EC50(HIV-1 strain LAI)
Experimental: as §1, §2, §3

Row | Compound | fold resistance (FR), strain B [1] | fold resistance (FR), strain F [2] | fold resistance (FR), strain S [3] | fold resistance (FR), strain L [4] | fold resistance (FR), strain K [5] | fold resistance (FR), strain C [6] | fold resistance (FR), strain Q [7] | fold resistance (FR), strain N [8] | fold resistance (FR), strain P [9] | fold resistance (FR), strain A [10] | fold resistance (FR), strain R [11] | fold resistance (FR), strain H [12] | fold resistance (FR), strain O [13] | fold resistance (FR), strain I [14] | fold resistance (FR), strain T [15] | fold resistance (FR), strain J [16] | fold resistance (FR), strain E [17] | fold resistance (FR), strain G [18] | fold resistance (FR), strain M [19] | fold resistance (FR), strain D [20]
1 | CC(C)CN(C[C@@H](O)[C@H](Cc1ccccc1)NC(=O)O[C@H]1CCOC1)S(=O)(=O)c1ccc2nc(NC(=O)CN3CCN(C)CC3)sc2c1.O=C(O)C(F)(F)F [Compound 64] | 0.7 | 4.6 | 17.0 | 0.2 | 0.7 | 0.6 | 2.3 | 0.9 | 0.2 | 0.7 | 0.6 | 0.9 | 0.8 | 1.3 | 165.5 | 1.0 | 0.7 | 0.6 | 0.7 | 0.6
2 | CC(=O)N(C)c1nc2ccc(S(=O)(=O)N(CC(C)C)CC(O)C(Cc3ccccc3)NC(=O)OC3COC4OCCC34)cc2s1 (mixture of isomers) [Compound 9] | 1.5 | 13.0 | 29.3 | 0.7 | 1.0 | 1.6 | 1.8 | 1.5 | 0.2 | 1.5 | 1.2 | 6.7 | 3.7 | 2.3 | 550.9 | 6.2 | 2.3 | 1.5 | 0.5 | 5.7
3 | CC(C)CN(C[C@@H](O)[C@H](Cc1ccccc1)NC(=O)O[C@H]1CO[C@H]2OCC[C@H]21)S(=O)(=O)c1ccc2nc(NC(=O)CN3CCCC3)sc2c1.O=C(O)C(=O)O [Compound 15] | 0.2 | 0.5 | 0.8 | 0.1 | 0.3 | 0.3 | 0.2 | 0.4 | 0.1 | 0.3 | 0.2 | 0.5 | 0.2 | 0.3 | 7.2 | 0.3 | 0.3 | 0.3 | 0.2 | 0.3
4 | CC(C)CN(CC(O)C(Cc1ccccc1)NC(=O)OC1COC2OCCC12)S(=O)(=O)c1ccc2nc(NC(=O)CN3CCCC3)sc2c1 (mixture of isomers) [Compound 7] | 0.3 | 0.5 | 2.0 | 0.1 | 0.3 | 0.5 | 0.4 | 0.5 | 0.1 | 0.2 | 0.4 | 0.5 | 0.4 | 0.5 | 12.4 | 0.4 | 0.3 | 0.2 | 0.1 | 0.5
5 | CC(C)CN(CC(O)C(Cc1ccccc1)NC(=O)OC1COC2OCCC12)S(=O)(=O)c1ccc2nc(NC(=O)CN3CCOCC3)sc2c1 (mixture of isomers) [Compound 10] | 0.4 | 0.5 | 0.5 | 0.2 | 0.3 | 0.6 | 0.3 | 0.0 | 0.3 | 0.4 | 0.3 | 0.4 | 0.4 | 0.4 | 4.9 | 0.3 | 0.4 | 0.5 | 0.3 | 0.5
6 | CC(C)CN(C[C@@H](O)[C@H](Cc1ccccc1)NC(=O)O[C@H]1CO[C@H]2OCC[C@H]21)S(=O)(=O)c1ccc2nc(NC(=O)CN3CCCC3)sc2c1.Cl [Compound 14] | 0.2 | 0.4 | 0.7 | 0.1 | 0.2 | 0.2 | 0.3 | 0.9 | 0.2 | 0.2 | 0.2 | 0.5 | 0.3 | 0.4 | 5.9 | 0.3 | 0.3 | 0.2 | 0.2 | 0.2
